Source: patent publication US20260076988A1 (The Cleveland Clinic Foundation, priority 2019, published 2026)
“Also recorded” adds a separate entry of the source. Like-named read-outs stand apart in the source and are kept apart here. Blank lines part the entries; values can stand above or below the molecule they belong to.

Tests used:
[1] = tested on: AML cells (MOLM13, OCI-AML3, THP1); assay: AML cell proliferation after a single dose; type: cell-based; conditions: decitabine, deoxycytidine 0.5 μM, 5-azacytidine, cytidine 5 μM
Experimental: (§1) A) Experiment schema. Vehicle, natural deoxycytidine (dC) 0.5 uM, natural cytidine (C) 5 uM, Dec 0.5 uM, or 5Aza 5 uM were added once to AML cells at 0 hours. B) Cell counts. By automated counter. Means±SD for 3 independent biological replicates for each cell line. C) Dec and 5Aza have opposite effects on dCTP levels. Measured by LCMS/MS 24 hrs after addition of Dec or 5Aza. Analyses of 2 or more independent nucleotide extractions from 3 different AML cells lines. Means±SD; p-values paired t-test, 1-sided. D) Gene expression 72 hours after Dec or 5Aza. Gene expression by QRT-PCR, relative to average expression in vehicle-treated controls. Means±SD for 3 independent biological replicates in each of 3 AML cell lines; p-values unpaired t-test vs vehicle, 2-sided. E) Western blot 72 hours after Dec or 5Aza. AML cells THP1, OCI-AML3 and K562. Western blots were reproduced in three independent biological replicates.

[2] = tested on: Dck, Uck2, Cda and Cad; assay: F1339 cells: pyrimidine metabolism enzyme expression by QRT-PCR and Western blot; type: cell-based, murine
Experimental: (§2) FIG. 2. […] F1339 p53-null cancer cells were seeded at D0 and treated with DMSO, deoxycytidine (DC, 0.5 μM), cytidine (CY, 5 μM), Dec (0.5 μM) and 5Aza (5 μM). […] Cell counts by automated counter, mean±SD. […] Gene expression by Q-PCR, median±interquartile range (IQR) (3 biological replicates), *p<0.05, **p<0.01. 2-sided Mann-Whitney test. […] Western blot.
RNA was extracted using Trizol reagent (Invitrogen) before the generation of complementary DNA using the iScript™ cDNA Synthesis Kit (Bio-rad). Quantitative PCR was run on StepOnePlus Real-Time PCR System (Applied Biosystems), using comparative Ct value method to quantify the expression of target genes in different samples. Gene expression was normalized to the housekeeping gene β-actin.
Tumor cells were lysed with RIPA lysis buffer and protein concentrations determined by BCA protein assay kit (Thermo Fisher Scientific). Samples with equal quantity (40 μg) of total protein were mixed with 4× loading buffer and 10× sample reducing reagent (Thermo Fisher Scientific), subjected to electrophoresis on a 12% (v/v) SDS-polyacrylamide gel, then transferred onto polyvinylidene fluoride membranes. After blocking with 5% dried skimmed milk, the membranes were washed three times and incubated with primary antibodies at 4° C. overnight. After washing, the membranes were further incubated with corresponding horseradish peroxidase-conjugated secondary antibodies. The membranes were then treated with Pierce™ ECL substrates (Thermo Scientific) then visualized using X-ray film.

[3] = tested on: UCK2-knockout HAP1 leukemia cells; assay: Growth inhibition of UCK2-knockout HAP1 leukemia cells; type: cell-based; conditions: Homo sapiens
From the text: (§3) A) DCK and UCK2 knockout (KO) were confirmed by Western blot. HAP1 leukemia cells, KO by CRISPR-Cas9. B) DCK-KO lowers dCTP and UCK2-KO lowers dTTP. Analysis of independent nucleotide extractions. Means±SD; p-values unpaired t-test, 2-sided. C) Sensitivity of Wildtype, DCK-KO and UCK2-KO HAP1 leukemia cells to Dec vs 5Aza. Means±SD of 3 independent biological replicates.
(§4) Study approvals. Bone marrow samples for research were obtained from patients with AML (Acute myeloid leukemia) with written informed consent on a study protocol approved by the Cleveland Clinic Institutional Review Board (Cleveland, Ohio). Murine experiments were approved by the Cleveland Clinic Institutional Animal Care and Use Committee (Cleveland, Ohio). Sources of cell lines and animals. […] DNMT1 Immuno-detection and quantitation: Immunohistochemistry (IHC) was performed on decalcified and formalin-fixed paraffin embedded bone marrow biopsy sections (4 μm) and on positive and negative controls (parental and DNMT1-KO HCT116 cells). […] Nuclei positive for DNMT1 were identified and quantified in high resolution, large field-of-view images per ImageIQ algorithms (Image IQ Inc., Cleveland, OH) after segmentation of images and subtraction of bone as has been previously described^4.

[4] = tested on: patient-derived AML cells; assay: Patient-derived xenotransplant (PDX) model of chemorefractory AML; conditions: for human CD45+ (hCD45+) AML cells in bone marrow: Day 45; for added benefit of ribonucleotide reductase inhibitor to THU+decitabine: dT 2 g/kg IP, hydroxyurea 100 mg/kg IP Day 1 before THU+decitabine days 2 and 3
From the text: NSG mice were tail-vein inoculated with patient-derived AML cells (1×10^6 cells/mouse) and randomized to (i) PBS vehicle control; (ii) CDA-inhibition by intra-peritoneal (IP) tetrahydrouridine (THU) and de novo pyrimidine synthesis inhibition by IP thymidine (dT); (iii) Dec; (iv) THU and Dec; (v) THU, Dec and dT (n=5/group). PBS, THU+dT mice were euthanized for distress on D42, and other mice were sacrificed for analysis on D63. […] C) Bone marrow human (hCD45) and murine (mCd45) myelopoiesis content. Flow-cytometry. Median±IQR. p-value Mann-Whitney test 2-sided. […] Median±IQR. p-value Mann-Whitney test 2-sided.
NSG mice were tail-vein inoculated with patient-derived AML cells (1×10^6 cells/mouse) and on Day 9 after inoculation randomized to the treatments as shown (n=7/group). Mice were euthanized if there were signs of distress. A) Experiment schema; B) Time-to-distress and euthanasia. C) Bone marrow human (hCD45) and murine (mCd45) myelopoiesis content. Femoral bones flushed after euthanasia. Measured by flow-cytometry. Median±IQR. D) Spleen weights at time-of-distress/euthanasia. Median±IQR. E) Spleens at the time-of-distress/euthanasia.
NSG mice were tail-vein inoculated with patient-derived AML cells (1×10^6 cells/mouse) and randomized to the treatments shown (n=5/group). Blood counts were obtained periodically by tail-vein phlebotomy. Mice were euthanized for signs of distress. A) Experiment schema; B) Time-to-distress. Log-rank test. […] D) Bone marrow replacement by AML. Bone marrow human and murine CD45+ cells measured by flow-cytometry (FIG. 32) after euthanasia (time-points panel B). Median±IQR. p-value Mann-Whitney test 2-sided. […] Flow cytometry (FIG. 33).
C) Percentage of human CD45+ (huCD45) positive cells in bone marrow. Flow cytometry. Median±IQR. p-value Mann-Whitney test 2-sided. 5 mice in each treatment group analyzed.
Mice were euthanized for signs of distress. A) Experiment schema; B) Time-to-distress. p-value Log-rank test. C) Bone marrow human leukemia cell burden at time-of-distress. Flow cytometry for human CD45+ cells. Median±IQR. p-value Mann-Whitney test 2-sided. […] E) Spleen weights at time-of-distress. Median±IQR. p-value Mann-Whitney test 2-sided.
NSG mice were tail-vein inoculated with patient-derived AML cells (1×10^6 cells/mouse) and on Day 5 after inoculation randomized to the treatments as shown (n=7/group). Mice were euthanized if there were signs of distress.

[5] = tested on: parental HAP1 leukemia cells; assay: Growth inhibition of parental HAP1 leukemia cells; type: cell-based; conditions: Homo sapiens
From the text: as §3, §4

[6] = tested on: thoracic malignancies; conditions: cited from earlier work
[7] = tested on: DNMT1; assay: Serial patient bone marrow biopsies, DNMT1 immunohistochemistry; type: in vivo, human; conditions: for decrease of DNMT1 protein at time-of-response compared to pre-treatment: 13 patients
From the text: (§5) Serial bone marrow biopsies from the same patient were cut onto the same slide, stained for DNMT1, and the number of DNMT1-positive nuclei was quantified objectively using ImageIQ software in 13 patients and positive/negative controls (tissue blocks of HCT116 wild-type and DNMT1-knockout cells respectively). D=days of therapy. Pre-Rx=pre-treatment; HI=hematologic improvement; CR=complete remission; SD=stable disease; Rel.=relapse. Mean±SD of ×3 image segments (cellular regions) per sample; p-value paired t-test, 2-sided. C) Expression of key pyrimidine metabolism enzymes at relapse/progression on Dec. […] Bone marrow cells aspirated pre-treatment and at relapse/progression on Dec (13 patients, median duration of therapy 175 days, range 97-922) or 5Aza (14 patients, median duration of therapy 433 days, range 61-1155) were analyzed by QRT-PCR. Mean±SD technical replicates×3. Paired t-test, 2-sided. D) Expression by Western blot of DNMT1 and key pyrimidine metabolism enzymes in Dec-resistant AML cells (THP1, K562, OCI-AML3 and MOLM13), and in parental THP1 AML cells treated with vehicle, Dec or 5-azacytidine (5Aza). Western blots.
as §4

[8] = tested on: LL3 lung cancer cells; assay: Syngeneic disseminated lung cancer model (LL3, tail vein); type: in vivo, C57BL/6 mice; conditions: for increase of time-to-distress over vehicle: treatment from day 21, Dec 0.2, THU-Dec 10/0.1, 5Aza 2, THU-5Aza 10/1 mg/kg sc 3×/wk
From the text: (§6) 2-sided Mann-Whitney test.
as §6, §6

[9] = tested on: DCK, UCK2, CDA and CAD; assay: Patients' bone marrow enzyme expression pre-treatment vs relapse, QRT-PCR; type: in vivo, human; conditions: MDS patients' bone marrow; for average increase of CAD expression at relapse: not in all patients
From the text: as §5
DNA isolation, reverse transcription (RT) and real-time PCR. As previously described^59. Primer sequences were:
CAD increased an average of ˜8-fold at relapse on either pro-drug, but not in all patients (FIG. 23C). The proliferation marker MKI67 increased at relapse in almost all the patients, consistent with active progression of disease (FIG. 23C).

[10] = tested on: DCK-knockout HAP1 leukemia cells; assay: Growth inhibition of DCK-knockout HAP1 leukemia cells; type: cell-based; conditions: Homo sapiens
From the text: as §3, §4

[11] = cited from earlier work
[12] = tested on: DCK; conditions: leukemia cells, within 48 hours; cited from earlier work
[13] = tested on: F1339 p53-null SCLC cells; assay: F1339 SCLC cells in vitro: proliferation, apoptosis, differentiation; type: cell-based, murine
Experimental: as §2

[14] = tested on: dCTP, dTTP and pyrimidine metabolism enzymes; assay: AML cells: nucleotide levels (LCMS/MS) and enzyme expression (QRT-PCR, Western blot); type: cell-based
Experimental: as §1
C) Off-target pathways of Dec and 5Aza. D) Effects of Dec and 5Aza on RRM2A, RRM2B and CTPS1 protein levels. Western blots 72 hours after addition of a single dose of Dec 0.25 μM or 5Aza 2.5 uM. Western blots were reproduced in biological replicates.

[15] = lung cancer cells, within 72-96 hours
[16] = HAP1, read-out: GI50 (concentration for 50% growth inhibition)
[17] = THU+dT day 42, other treatments day 63

SMILES: Nc1ccn([C@H]2C[C@H](O)[C@@H](CO)O2)c(=O)n1 [deoxycytidine]
AML cell proliferation [1]: did not impact proliferation

SMILES: Nc1ccn([C@@H]2O[C@H](CO)[C@@H](O)[C@H]2O)c(=O)n1 [cytidine]
AML cell proliferation [1]: did not impact proliferation

SMILES: Nc1ncn([C@H]2C[C@H](O)[C@@H](CO)O2)c(=O)n1 [decitabine]
CDA upregulation [2, 15]: ~3 fold | UCK2 upregulation [2, 15]: ~3 fold | GI50 [3, 16]: 0.1 µM | median survival (time-to-distress) ([4]; Dec 0.2 mpk SC Day 1 and 2 each week): 75 days | median survival (time-to-distress) ([4]; Dec 0.2 mpk SC Day 1 and 4 each week): 60 days | human CD45+ (hCD45+) AML cells in bone marrow ([4]; Dec 0.3 mpk SC Day 1 and 2 each week): ~26% | human CD45+ (hCD45+) AML cells in bone marrow ([4]; Dec 0.3 mpk SC Day 1 and 4 each week): ~63% | bone marrow hCD45+ [4, 17]: ~85% | bone marrow murine Cd45+ (murine hematopoiesis) [4, 17]: ~5% | DNMT1-depletion in bone marrow cells ([4]; day 63, on-therapy, flow cytometry): ~35% | median survival (time-to-distress) ([4]; week-to-week alternation experiment (FIG. 28)): 111 days | GI50 [5, 16]: 3 µM | myelosuppression ([6]; human, in vivo): grade ¾ myelosuppression | sustained plasma concentration ([6]; intravenous infusion, for ~72 hours): > 40 nM | decrease of DNMT1 protein at time-of-response compared to pre-treatment [7]: ~50% | increase of time-to-distress over vehicle [8]: about 20 days | decrease of DCK expression at relapse [9]: ~50% | increase of CDA expression at relapse [9]: ~3 fold | increase of UCK2 expression at relapse [9]: ~8 fold | average increase of CAD expression at relapse [9]: ~8 fold | GI50 [10, 16]: 12 µM | in vivo plasma half-life [11]: ~15 min

GI50 ([3]; HAP1, UCK2-knockout cells, read-out: GI50 (concentration for 50% growth inhibition)): 15 µM | GI50 ([10]; HAP1, DCK-knockout cells, read-out: GI50 (concentration for 50% growth inhibition)): 2 µM
SMILES: Nc1ncn([C@@H]2O[C@H](CO)[C@@H](O)[C@H]2O)c(=O)n1 [5-azacytidine]
DCK upregulation [12]: ~30% | expression of Dck, Uck2, Cda and Cad ([2]; decitabine 0.5 μM, 5-azacytidine 5 μM): increased Dck, Cda and Cad expression several-fold | CAD upregulation ([2]; lung cancer cells): ~2 fold | DCK upregulation ([2]; lung cancer cells): ~3 fold | GI50 ([5]; HAP1, parental cells, read-out: GI50 (concentration for 50% growth inhibition)): 4 µM | cell membrane Annexin-V staining (apoptosis-induction) ([13]; 24 hours after initiation of drug exposure): unaltered cell membrane Annexin-V staining | morphologic changes of differentiation ([13]; Giemsa-stained cytospins Day 5): induced morphologic changes in the cells consistent with differentiation induction | Myc protein ([13]; Western blot Day 5): decreased Myc protein | p27/CDKN1B protein ([13]; Western blot Day 5): increased p27/CDKN1B protein | F1339 proliferation ([13]; decitabine 0.5 μM, 5-azacytidine 5 μM, cytarabine 0.5 μM): significantly decreased F1339 proliferation; also recorded: did significantly impede the SCLC cell proliferation | DNMT1 protein at time-of-relapse on-therapy [7]: rebounded to levels comparable to pre-treatment levels | decrease of DNMT1 protein at time-of-response compared to pre-treatment [7]: ~50% | increase of time-to-distress over vehicle [8]: about 20 days | decrease of CDA expression at relapse [9]: ~50% | decrease of UCK2 expression at relapse [9]: ~50% | increase of DCK expression at relapse [9]: ~8 fold | average increase of CAD expression at relapse [9]: ~8 fold | DNMT1 protein [14]: depleted DNMT1 | RRM1 protein [14]: decreased levels of the ribonucleotide reductase sub-unit RRM1 | TYMS protein [14]: downregulated | dCTP amount ([14]; 24 hour time-point): significantly decreased | dTTP amount ([14]; 24 hour time-point): decreased by both pro-drugs, but not to statistical significance | CDA mRNA and protein expression ([14]; 72 hour time-point): significantly increased | DCK mRNA and protein expression ([14]; 72 hour time-point): significantly increased | phosphorylation of CAD at serine 1856 ([14]; 72 hour time-point): decrease phosphorylation of CAD at serine 1856 | total CAD or CTPS1 levels ([14]; 72 hour time-point): Neither pro-drug changed total CAD | AML cell proliferation [1]: significantly decreased AML cell proliferation | in vivo plasma half-life [11]: ~15 min

myelosuppression ([8]; murine models of lung cancer): without bone marrow suppression
SMILES: O=C1NC(O)CCN1[C@@H]1O[C@H](CO)[C@@H](O)[C@H]1O (stereo partly drawn) [THU, tetrahydrouridine]
increase of efficacy of decitabine or 5-azacytidine by THU ([8]; in vivo studies of murine lung cancer): ~2 fold | increase of oral bioavailability of decitabine and 5-azacytidine ([11]; addition of THU): ~10 fold | increase of plasma half-lives of decitabine and 5-azacytidine ([11]; addition of THU): ~10 fold

SMILES: Cc1cn([C@H]2C[C@H](O)[C@@H](CO)O2)c(=O)[nH]c1=O [dT, deoxythymidine]
added benefit of ribonucleotide reductase inhibitor to THU+decitabine [4]: did not add further to the benefit from THU

SMILES: NC(=O)NO [hydroxyurea]
added benefit of ribonucleotide reductase inhibitor to THU+decitabine [4]: did not add further benefit to THU+decitabine
